Values of other authors as cited in patent US8362266B2, “Method of manufacturing a ruthenium complex” (Niiki Pharma Inc., priority 2007, dated 2013).

System: broad spectrum of cancer cells
Conditions: background statement citing Kapitza et al., J. Cancer Res. Clin. Oncol. 131(2):101-10 (2005)

| Compound | inducing apoptosis |
| --- | --- |
| [Cl-].[Cl-].[Cl-].[Cl-].[Ru+3].c1ccc2[nH][nH+]cc2c1.c1ccc2[nH]ncc2c1.c1ccc2[nH]ncc2c1 [KP1099, indazolium trans-[tetrachlorobis(1H-indazole)ruthenate (III)]] | highly potent |
| [Cl][Ru-]([Cl])([Cl])[Cl].[Na+].c1ccc2[nH]ncc2c1.c1ccc2[nH]ncc2c1 [KP1339, sodium trans-[tetrachlorobis(1H-indazole)ruthenate (III)]] | highly potent |
